We go through 67 compounds from PubChem BioAssay AID977606 (Broad Institute, 2014).

The source made the active and inactive calls. How the calls were made is not given here.

In this assay the test system is INS-1E Gaussia luciferase insulin secretion, no glucose, luminescence. Kind of assay: glucose-independent GLuc insulin release activation – cell-based, INS-1E, Gaussia luciferase, luminescence, cherry-pick, counter-screen for glucose-dependent insulin secretion activators, dose response (AID 977606). (In general: The purpose of a counterscreen is to sort out artefacts and off-target activity.)
Consider `O=C(Cn1nnc(-c2ccccc2)n1)N=Nc1c(O)[nH]c2ccccc12`, for which the AC40 was 8.24 µM.
`O=C(Nc1ccc(SC(F)F)cc1)c1cccc2nc3ccccc3nc12`: the AC40 is 10.2 µM.
`COC(=O)c1ccc(C2C(Oc3ccc(OC)cc3)C(=O)N2CCc2ccc(F)cc2)cc1` (configuration not stated): the AC40 was 6.79 µM.
In the case of `CN(C)c1nc(=NCc2cccs2)ss1`, the AC40 is 1.19 µM.
`CCOC(=O)c1c(NC(=O)Cn2nc(C(F)(F)F)cc2C)sc(C)c1C`: the AC40 was 5.96 µM.
For the compound `Cc1cc(C(F)F)n2ncc(C(=O)NCc3ccc(F)cc3)c2n1`, the AC40 was > 35 µM (inactive).
With `C=CCOc1ccc(-c2nc3c(c(=O)[nH]c(=O)n3CCCC)n2C)cc1Br`, the AC40 was 10.1 µM.
`COc1ccccc1C(=O)Nc1c2c(nn1-c1cccc(C)c1C)CS(=O)(=O)C2`: the AC40 was 13 µM.
Turning to `N#Cc1c(-c2cccc(Br)c2)cc(-c2cccnc2)nc1N`, the AC40 was 8.34 µM.
For `O=C(Nc1ccccc1N1CCOCC1)C1=NN(c2ccccc2)C(=O)CC1`, the AC40 is 24.3 µM.
For `NS(=O)(=O)c1ccc(N=Cc2c(O)n(C3CCCCC3)c(=O)n(C3CCCCC3)c2=O)cc1`, the AC40 is 15.1 µM.
Turning to `NC(c1csc(Nc2ccc(C(F)(F)F)cn2)n1)C1CCCCC1` (configuration not stated), the AC40 is 5.02 µM.
Consider `Cn1c(=O)oc2cc(S(=O)(=O)N3CCC(C(=O)Nc4ccc(OC(F)(F)F)cc4)CC3)ccc21`, for which the AC40 was 5.04 µM.
Take `Cc1ccc(-n2nc3ccc(NC(=O)c4ccco4)cc3n2)cc1`: the AC40 was 8.86 µM.
Turning to `CN(C)S(=O)(=O)c1cccc(-n2sc3ccccc3c2=O)c1`, the AC40 was 2.58 µM.
As to `CCCCCCCCN1C(=O)[C@@H](CC(=O)N2CCN(C(=O)c3ccco3)CC2)C[C@@]2(C(=O)OC)C1=C[C@H](C1CCCC1)O[C@@H]2C`, the AC40 was 9.46 µM.
Turning to `COc1ccc(Br)cc1C(=O)Nc1cc(C)cc(C)c1`, the AC40 is 6.69 µM.
To `CCCCc1c(-c2cccc(OC)c2)ncn1CCc1ccccc1OC` belongs 7.6 µM.
Regarding `COC(=O)c1sccc1NC(=O)COc1ccc(Cl)cc1Cl`, the AC40 is 6.02 µM.
Turning to `Cc1ccccc1CSCc1ccc(C(=O)NCCCN2CCOCC2)o1`, the AC40 is 26.4 µM.
For `CC(C)(C)c1ccc(-c2cc(-c3ccccc3O)[nH]n2)cc1`, the AC40 is 5.34 µM.
For the compound `COc1cccc(CN2C[C@@H]3N[C@H](C2)C3c2ccc(-c3ccccc3OC)cc2)c1` (some centres not stated), the AC40 was 7.67 µM.
Take `CCCCCCN1C[C@H](n2cc(COC(=O)c3ccccc3)nn2)[C@@H](O)C[C@@H]1c1ccc(C)cc1`: the AC40 is 8.37 µM.
Consider `CCCCCc1cc(=O)oc2c(C(CCN3CCCC(C)C3)c3ccc(OC)cc3)c(OC)cc(OC)c12` (configuration not stated), for which the AC40 is 8.58 µM.
In the case of `CC(=O)Nc1cc(-c2cccc(C(=O)NCCN(C)C)c2)cn2c(-c3cccc(C(F)(F)F)c3)cnc12`, the AC40 is 8.13 µM.
As to `O=S(=O)(c1ccccc1F)N1C[C@@H]2N[C@H](C1)C2c1ccc(/C=C/c2ccccc2)cc1` (some centres not stated), the AC40 is 7.12 µM.
Turning to `Cc1cc(C)cc(OCCCN2CCC(C(O)(c3ccccc3)c3ccccc3)CC2)c1`, the AC40 was 6.87 µM.
For the compound `O=C(Cn1c(COc2ccccc2)nc2ccccc21)Nc1cc(Cl)cc(Cl)c1`, the AC40 was 5.2 µM.
Consider `CC(=O)Oc1ccc(Cl)cc1/C=C/c1ccc2ccccc2n1`, for which the AC40 was 9.46 µM.
As for `CC(C)Sc1nc2c(c(=O)[nH]c(=O)n2C)n1Cc1ccc(Cl)cc1`, the AC40 was 14 µM.
`O=C(COc1ccc2c(c1)OCO2)Nc1ccc2c(c1)oc1ccccc12`: the AC40 was 12.2 µM.
Take `c1ccc(Cn2nnc3c(N4CCc5ccccc54)ncnc32)cc1`: the AC40 was 6.35 µM.
For `FC(F)(F)c1cc(CCN2CCNC[C@H]2Cc2cccc3ccccc23)cc(C(F)(F)F)c1`, the AC40 is 3.69 µM.
For `CC(C)(c1ccccc1)c1ccc(OCC(O)CNC2CCN(Cc3ccccc3)CC2)cc1` (configuration not stated), the AC40 was 5.4 µM.
As to `COc1ccc(-n2c(-c3ccc(Cl)cc3)c[nH]c2=S)cc1`, the AC40 is 17.1 µM.
`COc1ccccc1CCn1cnc(-c2cccc(F)c2)c1CC(C)C`: the AC40 was 8.26 µM.
Turning to `CN(C)CCNC(=O)c1cc2c(s1)-c1ccc(Cl)cc1SC2`, the AC40 is 4.87 µM.
For `Cc1cccn2cc(CNS(=O)(=O)c3ccc4ccccc4c3)nc12`, the AC40 was 2.91 µM.
Next, `COC(=O)C1=C(C)N(Cc2cccc(C(F)(F)F)c2)C(=NCc2ccc(OC)cc2)NC1c1cccc(F)c1` (configuration not stated): 3.75 µM; `Cc1ccccc1C(=O)Nc1nnc(-c2ccc(C(C)(C)C)cc2)s1`: 4.97 µM; `NC1=NC[C@H](c2ccccc2)N1CCCCC1CCCCC1`: 17.4 µM.
To `CCCCCc1c(Cc2ccccc2)ncn1CCc1ccccc1OC` belongs 8.28 µM; to `CCS(=O)(=O)Nc1ccc(-c2cc(-c3ccccc3)c3cc(C)ccc3n2)cc1`, 17.5 µM; to `CCOc1ncccc1C(=O)NC(C)CCc1ccccc1` (configuration not stated), 16.2 µM.
As to `CCc1nc2ccc(C(=O)NCCCN3CCCC3=O)cn2c1N(CCC(C)C)CCN(C)C`, the AC40 is > 35 µM (inactive).
As to `Cc1ccc2sc(-c3ccc(NC(=O)c4cc(-n5cnnc5)ccc4Cl)cc3)nc2c1`, the AC40 is 8.4 µM.
Consider `CCc1c(C)sc(NC(=O)c2cc(-c3ccc(OC)c(OC)c3)on2)c1C#N`, for which the AC40 is 6.43 µM.
On to `Nn1c(-c2ccccc2)cc(-c2ccccc2)cc1=O`, for which the AC40 was > 35 µM (inactive).
On to `O=C(Nc1ccc(C(F)(F)F)cc1)N1[C@@H]2CNC[C@H]1C2c1ccc(/C=C/c2ccccc2)cc1` (some centres not stated), for which the AC40 is 7.54 µM.
Next, `Fc1cccc(CN2C[C@@H]3N[C@H](C2)C3c2ccc(/C=C/c3ccccc3)cc2)c1` (some centres not stated): 6.41 µM; `CCN(Cc1ccccc1)S(=O)(=O)c1ccc(C(=O)N(CCCN(C)C)c2nc3cc(C)cc(C)c3s2)cc1`: 3.71 µM; `COc1ccc(S(=O)(=O)Nc2ccccc2OC)cc1N=Nc1c(O)[nH]c(=S)[nH]c1=O`: 12.6 µM.
For the compound `O[C@H]1C[C@H](c2ccccc2)N(CC2CCCCC2)C[C@@H]1n1cc(C2CC2)nn1`, the AC40 is 8.64 µM.
Consider `C=CCNC(=S)N/N=C/c1ccc(-c2cc(Cl)ccc2Cl)o1`, for which the AC40 is 4.34 µM.
As for `COCCN(CCOC)Cc1cc(=O)oc2cc(OC)c(Cl)cc12`, the AC40 was > 35 µM (inactive).
Consider `COc1ccnc(N2CCN(c3cccc(C(F)(F)F)c3)CC2)c1C#N`, for which the AC40 was 10.1 µM.
As to `CCOc1ccc(Nc2oc(-c3ccc(Cl)cc3)nc2C#N)cc1`, the AC40 was 5.43 µM.
Turning to `CCN1CCN(Cc2ccc(NC(=O)c3cccc(-c4ccc5nc(NC(=O)C6CC6)sc5n4)c3)cc2C(F)(F)F)CC1`, the AC40 is 12 µM.
Next, `Cc1cc(NC(=O)c2cc(-c3cccc(Cl)c3)on2)no1`: 20.7 µM; `O=C(Nc1nc2ccccc2n1Cc1ccc(Cl)cc1)c1ccco1`: 6.72 µM.
Take `CS(=O)(=O)c1ccc2nc(NC(=O)Nc3ccc(Cl)c(Cl)c3)sc2c1`: the AC40 is 1.92 µM.
`Cc1ccc2c(Cl)c(C)c(N3CCCCC3)nc2n1`: the AC40 is 9.65 µM.
Take `CNC[C@H](CC1CCCCC1)NC[C@H](Cc1ccccc1)NCCC12CC3CC(CC(C3)C1)C2`: the AC40 is 4.43 µM.
To `CCCCc1c(-c2ccccc2OC)ncn1C(C)c1ccccc1` (configuration not stated) belongs 12.5 µM; to `CC(C)NC(=O)OC[C@H]1O[C@H](C#Cc2ccc(C(C)(C)C)cc2)C=C[C@H]1O`, 20.3 µM; to `C=CCn1c(SCc2ccccc2)nc2c1c(=O)[nH]c(=O)n2C`, 21.2 µM.
Regarding `CN(C)C=NC(=O)c1ccc(N2CCN(c3ncc(C(F)(F)F)cc3Cl)CC2)cc1`, the AC40 is 5.6 µM.
